Assay results taken from the Kinase Knowledgebase extract (Sharma et al. 2016).
Where “and” joins values, the source holds several entries; their conditions need not be identical. Equal values may be shown once.

Target: MAPK14 (human) (UniProt Q16539)
Experiment: Cell-Based Assay
Settings: for EC50 / Kd / Cp: thp1

Sequence of MAPK14 (human) (Q16539 whole entry, looked up): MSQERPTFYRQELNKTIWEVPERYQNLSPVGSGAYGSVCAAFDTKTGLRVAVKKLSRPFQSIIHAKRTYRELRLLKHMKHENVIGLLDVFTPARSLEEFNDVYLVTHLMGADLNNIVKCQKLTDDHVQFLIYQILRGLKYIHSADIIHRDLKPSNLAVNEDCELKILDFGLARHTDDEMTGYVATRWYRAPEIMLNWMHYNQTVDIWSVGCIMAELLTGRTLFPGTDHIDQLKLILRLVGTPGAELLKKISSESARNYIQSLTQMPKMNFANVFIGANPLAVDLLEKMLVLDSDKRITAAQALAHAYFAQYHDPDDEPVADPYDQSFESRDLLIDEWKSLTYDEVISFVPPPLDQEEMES

Row | SMILES | EC50 [nM] | Kd | Cp [µg/mL] | inhibition (thp1, concentration not given here) [%]
1 | CC(C)(C)c1cc(NC(=O)NCCc2ccccc2)n(-c2ccccc2)n1 | 11000 | 260 nM | – | –
2 | CC(C)(C)c1cc(NC(=O)Nc2ccc(N)cc2)n(-c2ccccc2)n1 | – | 318 nM | – | –
3 | Cc1ccc(-n2nc(C(C)(C)C)cc2NC(=O)Nc2cccc3ccccc23)cc1 | 370 | – | – | –
4 | CC(C)(C)c1cc(NC(=S)Nc2ccc(Cl)cc2)n(-c2ccccc2)n1 | – | 530 nM | – | –
5 | CC(C)(C)c1cc(NC(=O)Nc2ccccn2)n(-c2ccccc2)n1 | – | 400 nM | – | –
6 | CC(C)(c1ccccc1)c1cc(NC(=O)Nc2ccccc2)n(-c2ccccc2)n1 | – | 760 nM | – | –
7 | Cc1ccc(-n2nc(C(C)(C)C)cc2NC(=O)Nc2ccccc2F)cc1 | 130 | 14 nM | 51 | 53
8 | Cc1ccc(-n2nc(C(C)(C)C)cc2NC(=O)Nc2ccccc2)cc1 | 180 | 3 nM and 21 nM | 11 | –
9 | Cc1cc(NC(=O)Nc2ccccc2)n(-c2ccccc2)n1 | – | > 7000 nM | – | –
10 | CC(C)(C)c1cc(NC(=O)Nc2ccc3ccccc3c2)n(-c2ccccc2)n1 | 700 | – | – | –
11 | CC(C)(C)c1cc(NC(=O)Nc2ccncc2)n(-c2ccccc2)n1 | – | 1200 nM | – | –
12 | CN(C(=O)Nc1ccc(Cl)cc1)c1cc(C(C)(C)C)nn1-c1ccccc1 | – | > 1000 nM | – | –
13 | COCC(C)(C)c1cc(NC(=O)Nc2ccccc2)n(-c2ccccc2)n1 | – | 1400 nM | – | –
14 | CC(C)c1cc(NC(=O)Nc2ccccc2)n(-c2ccccc2)n1 | – | 330 nM | – | –
15 | CN(C(=O)Nc1cc(C(C)(C)C)nn1-c1ccccc1)c1ccc(Cl)cc1 | – | 7500 nM | – | –
16 | CC(C)(C)c1cc(NC(=O)Cc2ccc(Cl)cc2)n(-c2ccccc2)n1 | – | > 900 nM | – | –
17 | O=C(Nc1ccccc1)Nc1cc(C2CCCCC2)nn1-c1ccccc1 | – | > 400 nM | – | –
18 | CC(C)(C)c1cc(NC(=O)Nc2ccccc2)n(C2CCCCC2)n1 | – | 500 nM | – | –
19 | CC(C)(C)c1cc(NC(N)=O)n(-c2ccccc2)n1 | – | > 7000 nM | – | –
20 | CC1(c2cc(NC(=O)Nc3ccccc3)n(-c3ccccc3)n2)CCOCC1 | – | 280 nM | – | –
21 | CC(C)(C)c1cc(NC(=O)Nc2cccnc2)n(-c2ccccc2)n1 | – | 420 nM | – | –
22 | CC(C)(C)c1cc(CC(=O)Nc2ccc(Cl)cc2)n(-c2ccccc2)n1 | – | 1500 nM | – | –

Now from value to molecule, other results behind:

Row | EC50 [nM] | Kd | SMILES | Cp [µg/mL] | inhibition (thp1, concentration not given here) [%]
23 | 410 | 3 nM | Cc1cccc(NC(=O)Nc2cc(C(C)(C)C)nn2-c2ccccc2)c1C | – | –
24 | 1000 | 100 nM | CC(C)(C)c1cc(NC(=O)Nc2cccc(N)c2)n(-c2ccccc2)n1 | – | –
25 | 1900 | 8 nM | CC(C)(C)c1cc(NC(=O)Nc2ccccc2)n(-c2ccc3ccccc3c2)n1 | – | –
26 | 380 | 2 nM | Cc1cccc(-n2nc(C(C)(C)C)cc2NC(=O)Nc2ccccc2)c1 | – | –
27 | 1200 | 47 nM | CC(C)(C)c1cc(NC(=O)NCc2ccccc2)n(-c2ccccc2)n1 | – | –
28 | 330 | 3 nM | CC(C)(C)c1cc(NC(=O)NC2CCc3ccccc32)n(-c2ccccc2)n1 (stereo not given) | – | –
29 | 2300 | 200 nM | Cc1ccccc1-n1nc(C(C)(C)C)cc1NC(=O)Nc1ccccc1 | – | –
30 | – | 12 nM | CCC(C)(C)c1cc(NC(=O)Nc2ccccc2)n(-c2ccccc2)n1 | – | –
31 | 250 | 5 nM | CC(C)(C)c1cc(NC(=O)Nc2cccc3ccccc23)n(-c2ccccc2)n1 | – | –
32 | 3300 | 130 nM | CC(C)(C)c1cc(NC(=O)NC2CCCCC2)n(-c2ccccc2)n1 | – | –
33 | 1600 | 31 nM | COc1ccc(-n2nc(C(C)(C)C)cc2NC(=O)Nc2ccccc2)cc1 | – | –
34 | 120 | 4 nM | Cc1ccc(-n2nc(C(C)(C)C)cc2NC(=O)Nc2ccccc2)cc1C | – | –
35 | 630 | 7 nM | CC(C)(C)c1cc(NC(=O)Nc2ccccc2)n(-c2ccc(N)cc2)n1 | – | –
36 | – | 22 nM | CC1(c2cc(NC(=O)Nc3ccccc3)n(-c3ccccc3)n2)CCCCC1 | – | –
37 | 770 | 14 nM | CC(C)(C)c1cc(NC(=O)NC2Cc3ccccc3C2)n(-c2ccccc2)n1 | – | –
38 | 960 | 19 nM | COc1cccc(-n2nc(C(C)(C)C)cc2NC(=O)Nc2ccccc2)c1 | – | –
39 | 1000 | 8 nM | CC(C)(C)c1cc(NC(=O)Nc2ccc(Cl)cc2)n(-c2ccccc2)n1 | – | –
40 | 820 | 21 nM | CC(C)(C)c1cc(NC(=O)Nc2ccccc2)n(-c2ccncc2)n1 | – | –
41 | 730 | 13 nM | CC(C)(C)c1cc(NC(=O)Nc2ccccc2)n(-c2ccccc2)n1 | 0.1 | –
